From paper PMC12073402, “A Selective MAP3K1 Inhibitor Facilitates Discovery of NPM1 as a Member of the Network” (Molecules, 2025) come the findings set out here.

Experiment [1] relates to TNF-α–induced MAP3K1-IKKβ–mediated NF-κB transcription. The experiment in a line: NF-κB luciferase reporter assay in HeLa cells. It is filed as cell-based. As to conditions: 20, 10, 5 μM, TNF-α 20 ng/mL, 6 h. From the text:
MAP3K1 was previously shown to phosphorylate IKKβ [12] and regulate NF-κB signaling. Therefore, we validated the ability of 51-106 to inhibit MAP3K1 by probing the phosphorylation status of the known substrate, IKKβ, using an AlphaLISA assay. The pancreatic cancer cells (MiaPaCa2) were subjected to a 30-min pretreatment with varying concentrations of 51-106, followed by TNFα stimulation to induce IKKβ phosphorylation. Following a 15-min stimulation, the levels of phospho-IKKβ and total IKKβ were quantified. […] (Figure 3A). Next, we evaluated the efficacy of 51-106 in a cell-based reporter assay utilizing a HeLa cell line that specifically responds to TNFα induced expression of a luciferase reporter gene that is under the control of an NF-κB response element.
A suspension of HeLa-NFkB-Luc cells (Cat# SL-0001; Signosis; Santa Clara, CA, USA) (2 × 10^4/well) in 80 μL media was plated in white-walled, flat, clear-bottomed, sterile, 96-well tissue culture plates (Cat# 3610; Corning). The cells were allowed to adhere overnight in a humidified 5% CO2 incubator at 37 °C. […] Post stimulation addition (6 h), fluorescence (Ex 560, Em 590) was measured on the plate reader to assess cell viability. […] Luminescence (1000 ms) was measured on the plate reader set to the kinetic mode of acquisition for 15 min. The luminescence data were normalized to the AlamarBlue values. […]
For orientation: Reporter assays use an easily measured gene product as a stand-in for the process of interest.

Another experiment has as its target T1, NLK (Homo sapiens, UniProt Q9UBE8).
T1 construct: endogenous in cells; host or cells: PANC-1 cell lysate
The experiment in a line: KiNativ kinome profiling in PANC-1 lysate. It is filed as binding. The following applies: Lys2. In short, it runs like this:
(§1)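 PANC-1 lysates were incubated with 5 μM inhibitor or DMSO, then labeled with a desthiobiotin-ATP acyl-phosphate probe that biotinylates conserved kinase lysines. Tryptic peptides were streptavidin-enriched and quantified by LC-MS/MS, reported as % change in MS signal from duplicate treated and duplicate control samples.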

The next experiment addresses T2, NuaK2 (Homo sapiens, UniProt Q9H093).
T2 construct: endogenous in cells; host or cells: PANC-1 cell lysate
The experiment in a line: KiNativ kinome profiling in PANC-1 lysate. As to conditions: Lys1. The class given is binding. In short, it runs like this:
as §1

The target of the next experiment is T3, CK1g1 (Homo sapiens, UniProt Q9HCP0).
T3 construct: endogenous in cells; host or cells: PANC-1 cell lysate
The experiment in a line: KiNativ kinome profiling in PANC-1 lysate. It is filed as binding. As to conditions: Lys2. In a few lines:
as §1

In the next experiment the target is T4, MARK2 (Homo sapiens, UniProt Q7KZI7).
T4 construct: endogenous in cells; host or cells: PANC-1 cell lysate
T4 sequence (Q7KZI7 whole entry): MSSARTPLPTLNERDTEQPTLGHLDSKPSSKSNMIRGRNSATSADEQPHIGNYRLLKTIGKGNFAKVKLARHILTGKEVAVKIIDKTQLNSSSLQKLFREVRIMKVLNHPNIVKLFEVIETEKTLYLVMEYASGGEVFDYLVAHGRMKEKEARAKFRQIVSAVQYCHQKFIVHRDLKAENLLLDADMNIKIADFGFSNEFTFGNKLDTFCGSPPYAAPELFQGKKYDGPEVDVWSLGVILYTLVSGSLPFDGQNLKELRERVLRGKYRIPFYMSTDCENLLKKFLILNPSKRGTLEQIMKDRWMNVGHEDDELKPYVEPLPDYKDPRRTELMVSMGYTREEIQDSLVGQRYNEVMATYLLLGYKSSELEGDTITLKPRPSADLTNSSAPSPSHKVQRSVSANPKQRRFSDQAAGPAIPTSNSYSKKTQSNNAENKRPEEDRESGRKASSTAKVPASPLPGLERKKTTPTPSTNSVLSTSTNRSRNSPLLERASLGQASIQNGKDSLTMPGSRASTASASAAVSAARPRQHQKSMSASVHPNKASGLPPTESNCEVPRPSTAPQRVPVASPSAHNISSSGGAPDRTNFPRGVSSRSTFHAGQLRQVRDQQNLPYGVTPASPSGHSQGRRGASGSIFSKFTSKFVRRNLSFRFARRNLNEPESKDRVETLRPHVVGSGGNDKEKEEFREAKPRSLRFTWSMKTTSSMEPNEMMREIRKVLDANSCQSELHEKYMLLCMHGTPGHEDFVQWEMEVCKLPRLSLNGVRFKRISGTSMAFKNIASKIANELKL
The experiment in a line: KiNativ kinome profiling in PANC-1 lysate. The class given is binding. As to conditions: Lys1. In short, it runs like this:
as §1

The target in the next experiment is T5, TLK1 (Homo sapiens, UniProt Q9UKI8).
T5 construct: endogenous in cells; host or cells: PANC-1 cell lysate
The experiment in a line: KiNativ kinome profiling in PANC-1 lysate. It is filed as binding. As to conditions: Lys2. In a few lines: as §1

The next experiment deals with T6, ZAK (Homo sapiens, UniProt Q9NYL2).
T6 construct: endogenous in cells; host or cells: PANC-1 cell lysate
T6 sequence (Q9NYL2 whole entry): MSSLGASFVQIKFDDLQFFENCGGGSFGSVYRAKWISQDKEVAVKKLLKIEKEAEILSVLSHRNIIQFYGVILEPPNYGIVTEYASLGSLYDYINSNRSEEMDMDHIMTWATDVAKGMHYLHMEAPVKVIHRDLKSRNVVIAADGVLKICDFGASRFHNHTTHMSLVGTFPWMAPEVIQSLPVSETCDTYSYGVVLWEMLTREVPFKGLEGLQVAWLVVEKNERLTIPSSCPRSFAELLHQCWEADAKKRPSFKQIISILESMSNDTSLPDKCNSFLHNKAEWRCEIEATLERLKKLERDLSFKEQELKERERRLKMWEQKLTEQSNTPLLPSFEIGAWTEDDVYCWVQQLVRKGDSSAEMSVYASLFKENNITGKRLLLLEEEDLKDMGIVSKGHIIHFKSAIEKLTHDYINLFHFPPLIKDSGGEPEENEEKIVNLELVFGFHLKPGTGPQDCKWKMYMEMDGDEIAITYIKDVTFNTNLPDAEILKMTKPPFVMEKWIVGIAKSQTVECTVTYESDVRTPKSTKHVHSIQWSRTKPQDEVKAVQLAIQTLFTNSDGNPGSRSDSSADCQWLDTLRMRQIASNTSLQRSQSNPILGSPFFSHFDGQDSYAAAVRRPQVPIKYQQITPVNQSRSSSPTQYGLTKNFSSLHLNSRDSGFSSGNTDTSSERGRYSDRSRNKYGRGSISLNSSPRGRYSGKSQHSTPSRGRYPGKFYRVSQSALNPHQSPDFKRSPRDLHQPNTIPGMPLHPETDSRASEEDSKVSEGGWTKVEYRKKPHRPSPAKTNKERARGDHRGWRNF
The experiment in a line: KiNativ kinome profiling in PANC-1 lysate. The class given is binding. As to conditions: Lys1. In a few lines: as §1

The target of the next experiment is T7, CHED (Homo sapiens, UniProt Q14004).
T7 construct: endogenous in cells; host or cells: PANC-1 cell lysate
The experiment in a line: KiNativ kinome profiling in PANC-1 lysate. The class given is binding. The following applies: Lys2. In short, it runs like this: as §1

Another experiment concerns NDR1, NDR2. The experiment in a line: KiNativ kinome profiling in PANC-1 lysate. It is filed as binding. As to conditions: 5 µM; ATP Loop; LSDFGLCTGLKK
In short, it runs like this: as §1

In a further experiment the target is T8, MST3 (Homo sapiens, UniProt Q9Y6E0).
T8 construct: endogenous in cells; host or cells: PANC-1
T8 sequence (Q9Y6E0 whole entry): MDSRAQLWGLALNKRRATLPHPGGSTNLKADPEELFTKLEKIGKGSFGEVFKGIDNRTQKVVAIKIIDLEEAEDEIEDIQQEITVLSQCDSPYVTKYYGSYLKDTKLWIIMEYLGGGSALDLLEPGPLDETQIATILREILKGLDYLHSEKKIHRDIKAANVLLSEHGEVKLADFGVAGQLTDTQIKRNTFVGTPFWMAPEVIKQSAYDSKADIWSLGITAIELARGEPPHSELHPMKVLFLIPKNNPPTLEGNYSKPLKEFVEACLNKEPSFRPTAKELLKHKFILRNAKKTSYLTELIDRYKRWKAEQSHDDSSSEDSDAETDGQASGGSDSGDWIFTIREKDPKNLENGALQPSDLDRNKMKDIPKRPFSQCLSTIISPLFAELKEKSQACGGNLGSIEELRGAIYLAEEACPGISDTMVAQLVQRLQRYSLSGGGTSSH
The experiment in a line: KiNativ kinome profiling in PANC-1 lysate. The class given is binding. As to conditions: Lys2. In short, it runs like this: as §1

A further experiment deals with T9, MAP3K6 (Homo sapiens, UniProt O95382).
T9 construct: endogenous in cells; host or cells: PANC-1 cell lysate
T9 sequence (O95382 whole entry): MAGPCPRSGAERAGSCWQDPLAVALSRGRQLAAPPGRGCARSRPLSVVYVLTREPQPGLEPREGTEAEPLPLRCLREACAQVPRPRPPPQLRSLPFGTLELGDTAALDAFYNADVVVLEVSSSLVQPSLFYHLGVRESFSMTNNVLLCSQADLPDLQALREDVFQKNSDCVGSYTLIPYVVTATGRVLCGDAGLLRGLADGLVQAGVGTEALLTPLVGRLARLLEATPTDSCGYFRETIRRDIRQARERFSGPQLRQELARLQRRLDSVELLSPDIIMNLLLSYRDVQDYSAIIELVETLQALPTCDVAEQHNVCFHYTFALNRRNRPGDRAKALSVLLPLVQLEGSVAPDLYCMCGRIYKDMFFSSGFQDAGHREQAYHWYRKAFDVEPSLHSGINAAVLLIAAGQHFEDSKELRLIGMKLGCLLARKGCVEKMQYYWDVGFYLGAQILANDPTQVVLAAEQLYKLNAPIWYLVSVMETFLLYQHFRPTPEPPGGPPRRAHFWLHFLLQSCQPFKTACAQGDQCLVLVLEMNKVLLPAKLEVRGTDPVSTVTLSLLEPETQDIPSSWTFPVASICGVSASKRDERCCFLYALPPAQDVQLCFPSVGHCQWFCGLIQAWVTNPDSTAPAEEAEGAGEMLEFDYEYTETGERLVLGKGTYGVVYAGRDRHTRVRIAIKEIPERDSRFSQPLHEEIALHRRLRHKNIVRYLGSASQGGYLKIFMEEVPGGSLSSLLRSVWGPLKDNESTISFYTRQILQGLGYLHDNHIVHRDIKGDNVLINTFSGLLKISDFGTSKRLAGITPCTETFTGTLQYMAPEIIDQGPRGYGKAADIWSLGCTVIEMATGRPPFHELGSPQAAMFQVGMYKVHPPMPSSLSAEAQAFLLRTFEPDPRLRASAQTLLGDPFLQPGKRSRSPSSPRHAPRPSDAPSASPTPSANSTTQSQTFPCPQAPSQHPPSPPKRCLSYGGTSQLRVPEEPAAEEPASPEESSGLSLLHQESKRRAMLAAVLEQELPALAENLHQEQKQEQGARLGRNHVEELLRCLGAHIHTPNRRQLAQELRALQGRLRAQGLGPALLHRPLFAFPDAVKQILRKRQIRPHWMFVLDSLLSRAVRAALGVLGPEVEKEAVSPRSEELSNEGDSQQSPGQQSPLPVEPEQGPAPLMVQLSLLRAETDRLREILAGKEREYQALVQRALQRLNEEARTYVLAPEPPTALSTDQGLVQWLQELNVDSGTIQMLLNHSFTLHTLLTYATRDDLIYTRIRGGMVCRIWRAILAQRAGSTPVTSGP
The experiment in a line: KiNativ kinome profiling in PANC-1 lysate. It is filed as binding. In a few lines:
as §1

For another experiment, the target named is T10, CDK10 (Homo sapiens, UniProt Q15131).
T10 construct: endogenous in cells; host or cells: PANC-1 cell lysate
The experiment in a line: KiNativ kinome profiling in PANC-1 lysate. The class given is binding. As to conditions: Lys2. In a few lines:
as §1

Another experiment deals with T11, PKN2 (Homo sapiens, UniProt Q16513).
T11 construct: endogenous in cells; host or cells: PANC-1 cell lysate
T11 sequence (Q16513 whole entry): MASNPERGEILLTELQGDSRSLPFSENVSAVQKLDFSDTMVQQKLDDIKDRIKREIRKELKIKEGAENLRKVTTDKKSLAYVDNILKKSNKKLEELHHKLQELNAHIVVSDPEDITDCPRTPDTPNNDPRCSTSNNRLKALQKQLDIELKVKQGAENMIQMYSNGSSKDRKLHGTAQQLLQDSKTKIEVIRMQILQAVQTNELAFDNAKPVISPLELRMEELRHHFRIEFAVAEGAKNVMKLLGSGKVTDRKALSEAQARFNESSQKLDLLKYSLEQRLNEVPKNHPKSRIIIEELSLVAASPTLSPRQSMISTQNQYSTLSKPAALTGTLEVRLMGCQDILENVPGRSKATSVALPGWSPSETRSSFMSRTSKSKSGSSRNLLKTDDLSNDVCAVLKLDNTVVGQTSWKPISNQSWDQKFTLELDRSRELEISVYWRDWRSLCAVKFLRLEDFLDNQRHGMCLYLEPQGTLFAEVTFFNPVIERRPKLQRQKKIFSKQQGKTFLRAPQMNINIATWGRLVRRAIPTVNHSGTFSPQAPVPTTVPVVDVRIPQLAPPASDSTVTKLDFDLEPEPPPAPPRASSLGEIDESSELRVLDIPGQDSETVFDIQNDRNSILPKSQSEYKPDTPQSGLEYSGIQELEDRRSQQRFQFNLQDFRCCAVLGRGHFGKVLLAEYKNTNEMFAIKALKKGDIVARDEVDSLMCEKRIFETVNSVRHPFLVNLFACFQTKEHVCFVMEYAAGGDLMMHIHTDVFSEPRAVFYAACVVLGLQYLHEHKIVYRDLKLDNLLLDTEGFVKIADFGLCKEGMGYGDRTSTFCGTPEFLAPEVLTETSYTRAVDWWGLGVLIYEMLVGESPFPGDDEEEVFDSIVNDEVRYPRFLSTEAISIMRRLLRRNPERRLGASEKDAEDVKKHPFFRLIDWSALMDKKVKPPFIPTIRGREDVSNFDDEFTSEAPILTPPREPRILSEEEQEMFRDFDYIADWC
The experiment in a line: KiNativ kinome profiling in PANC-1 lysate. The class given is binding. The following applies: Lys2. In a few lines: as §1

A further experiment deals with T12, CDK11 (Homo sapiens, UniProt Q9BWU1).
T12 construct: endogenous in cells; host or cells: PANC-1 cell lysate
The experiment in a line: KiNativ kinome profiling in PANC-1 lysate. The class given is binding. As to conditions: Lys1. In a few lines: as §1

Structures are written as SMILES.

T2 sequence (Q9H093 whole entry): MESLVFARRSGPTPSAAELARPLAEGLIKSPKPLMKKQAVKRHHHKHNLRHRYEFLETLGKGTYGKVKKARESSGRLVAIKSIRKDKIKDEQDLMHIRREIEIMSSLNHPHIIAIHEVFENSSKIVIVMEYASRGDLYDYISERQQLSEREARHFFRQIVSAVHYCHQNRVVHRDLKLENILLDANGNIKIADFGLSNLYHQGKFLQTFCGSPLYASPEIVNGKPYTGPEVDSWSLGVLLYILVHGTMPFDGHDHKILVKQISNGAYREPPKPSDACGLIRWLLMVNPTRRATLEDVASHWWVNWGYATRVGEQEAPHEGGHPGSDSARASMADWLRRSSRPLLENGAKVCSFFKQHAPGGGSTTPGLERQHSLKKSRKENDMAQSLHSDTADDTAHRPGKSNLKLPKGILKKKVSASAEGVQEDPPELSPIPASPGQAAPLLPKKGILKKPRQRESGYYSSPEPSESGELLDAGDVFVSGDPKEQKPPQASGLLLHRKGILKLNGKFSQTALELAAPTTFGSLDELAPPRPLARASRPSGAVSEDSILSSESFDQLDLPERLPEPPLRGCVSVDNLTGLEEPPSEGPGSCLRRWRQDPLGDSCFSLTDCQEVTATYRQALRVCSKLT

A word on the inhibition: it is the relative decrease from the control value, in per cent. A lower inhibition goes with a weak effect. `Cn1cc(-c2cnc3ccc(NC(=O)Nc4ccc(F)c(C(F)(F)F)c4)cc3n2)cn1` [51-106, 1-(4-Fluoro-3-(trifluoromethyl)phenyl)-3-(3-(1-methyl-1H-pyrazol-4-yl)quinoxalin-6-yl)urea]: the “TNF-α–induced NF-κB transcription (luciferase reporter)” value in experiment [1] is listed as “dose-dependent inhibition”. Further, the inhibition at 5 µM is 5.9% against NLK; 2.2% on NuaK2; at most 0% against CK1g1; 5% against MARK2; 6.2% at TLK1; at most 0% against ZAK. In addition, the inhibition at 5 µM on CHED was at most 0%; against MST3, 4.2%; against MAP3K6 (5 µM, Lys2, […]), at most 0%; against CDK10, 10.3%; against PKN2, 3.7%; against CDK11, 4%. Moreover, the “% Inhibition” value in the experiment on NDR1, NDR2 is reported as “NB (NB = No Binding (≤ 0))”. Moreover, at MAP3K6 (5 μM, PANC-1 lysate), the “inhibition of MAP3K6 (in words)” value is on record as “did not inhibit”.
